Assays:
Type in all cases: in vivo, nude mice
T20.2 xenografts = test: Retransplantation xenograft, paclitaxel-resistant clone
Description: FIGS. 6A-6C are a series of graphs showing data that validate the A549 in vivo paclitaxel resistance model. (FIG. 6A) Tumor cell lines established after an initial round of inoculation and treatment with either vehicle (T28.2) or 15 mg/kg paclitaxel (T20.2) were harvested during log-phase growth and reinjected subcutaneously into the flanks of nude mice. When the average tumor volume was ˜120 mm^3, vehicle (open circles or squares) or 15 mg/kg paclitaxel (closed circles or squares) was administered intraperitoneally every other day. Treatment was continued until tumors reached approximately four times their initial volume. Each curve represents the average tumor growth±s.e.m. for 10 mice per group. […] Each bar represents the average tumor growth±s.e.m. for 10 mice per group. NS: not significant, *P<0.05 as determined by Wilcoxon's rank sum test. (FIG. 6C) Tumors were harvested, cultured in vitro and cell viability was assessed using the MTT assay. Values are presented as percentage of cell survival in paclitaxel-treated cells relative to untreated cells. White bars represent LC50s from tumor cell lines established from T28.2 tumors treated with vehicle. Black bars represent LC50s from cell lines established from T20.2 tumors treated with paclitaxel. Shown are the mean±s.e.m. of two independent experiments, each performed in triplicate. *P<0.05 as determined by Wilcoxon's rank sum test. […]

A549 xenografts = test: A549 xenograft mouse model, paclitaxel treatment
Description: (FIG. 5A) A suspension of A549 cells was injected subcutaneously into the flank of a nude mouse. When the average tumor volume was at least 120 mm^3, vehicle or paclitaxel (15 mg/kg) was administered intraperitoneally every other day. Treatment was continued until tumors reached approximately four times their initial volume. Paclitaxel-refractory, as well as vehicle-treated tumors, were digested with collagenase and cultured in vitro (adapted from Norman E et al. Nature Reviews Drug Discovery 2006; 5: 741-754). (FIG. 5B) Tumor growth was determined as the tumor volume on the day of treatment relative to the tumor volume at the start of treatment and presented as a ratio. Each line represents the growth of an individual tumor (T) in an individual mouse (indicated by a number). Groups of mice are separated into control, paclitaxel-responsive and paclitaxel non-responsive (continuous tumor growth in the presence of paclitaxel) groups. […] (FIG. 5C) Vehicle-treated tumors (hatched bars) or paclitaxel-refractory tumors (black bars) were harvested from mice and used to generate two cell lines per tumor. The indicated cell lines were cultured in vitro and cell viability was assessed 72 h after paclitaxel addition using the MTT assay. Bars represent average LC50±s.e.m. from triplicate experiments.
Nude mice were inoculated with A549 cells. At an average tumor volume of ˜120 mm^3, vehicle control and 10 mg/kg (FIG. 10A) or 12.5 mg/kg (FIG. 10B) paclitaxel was administered i.p. every day. Each curve represents the tumor volume on the day of treatment relative to day 0 per mouse.
To further establish the role of miR-135a in paclitaxel response, the A549 xenograft mouse model was adapted from the protocol previously described by Patel et al., 2010. Briefly, nude mice bearing subcutaneous A549 xenografts were injected intraperitoneally with either vehicle or 15 mg/kg paclitaxel until tumors that responded initially began to regrow (FIG. 5A). […] After 120 days of paclitaxel treatment, control and paclitaxel-refractory tumors were harvested. Within two passages in vitro, RNA was harvested for miRNA evaluation and determination of paclitaxel response.
Approximately 4×10^6 human A549 NSCLC cells were resuspended in 50% Matrigel (BD Biosciences, Bedford, Mass.) and injected subcutaneously into the hind flanks of 8-wk old male athymic (nu/nu) nude mice (Taconic Farms, Inc., Hudson, N.Y.). […] Tumor size was determined by digital caliper measurements (length and width in mm), and tumor volume (mm^3) was estimated using the formula (length×width^2)/2. Effects on tumor growth rate were assessed per mouse by determining the tumor volume on the day of treatment relative to the tumor volume on Day 0. […]

[1] = Mouse weight during paclitaxel treatment; details: 15 mg/kg paclitaxel intraperitoneally 3 times per week
Description: FIG. 11 is a line graph indicating mouse weight in paclitaxel-treated and control groups. Tumor-bearing nude mice were treated i.p. with 15 mg/kg paclitaxel every other day. Animals were weighed before each injection on a digital scale. Each curve represents the mean weight±s.e.m. of 10 mice per day of treatment.
Approximately 4×10^6 human A549 NSCLC cells were resuspended in 50% Matrigel (BD Biosciences, Bedford, Mass.) and injected subcutaneously into the hind flanks of 8-wk old male athymic (nu/nu) nude mice (Taconic Farms, Inc., Hudson, N.Y.). When the average tumor volume reached ˜150 mm^3, mice (N=10 per group) were randomly assigned to the treatment or control group (Day 0). Mice were treated with vehicle (control) or 15 mg/kg paclitaxel (Bristol-Myers Squibb Co, Princeton, N.J.) intraperitoneally 3 times per week (on Mondays, Wednesdays, and Fridays). […] Tumor size was determined by digital caliper measurements (length and width in mm), and tumor volume (mm^3) was estimated using the formula (length×width^2)/2. Effects on tumor growth rate were assessed per mouse by determining the tumor volume on the day of treatment relative to the tumor volume on Day 0. Animals were sacrificed once morbidity became evident or their tumor size exceeded 1000 mm^3. […]

[2] = tested on: A549 cells overexpressing miR-135a; test: Xenograft of A549 cells stably overexpressing miR-135a, paclitaxel treatment; details: paclitaxel three times a week for 3 weeks
Description: (§1) A549 cells stably expressing either non-targeting premiR (A549-control) or premiR-135a (A549-miR-135a) were generated. (FIG. 8A) miR-135a expression level in A549-control and -miR-135a was determined and compared with A549 and A549TR cells using qRT-PCR analysis. *P<0.01. (FIG. 8B) Paclitaxel response of A549-control and A549-premiR-135a cells was determined using the MTT assay. (FIG. 8C) APC protein expression was examined using western blot analysis in A549-control and -premiR-135a cells. (FIG. 8D) A549-control and -premiR-135a cells were inoculated subcutaneously into the flanks of nude mice. Paclitaxel treatment was given three times a week for 3 weeks. The tumor size in each group was measured during the course of treatment and was calculated, relative to the size before treatment initiation. Each curve represents the average tumor growth±s.e.m. for 10 mice per group. **P<0.001 as determined by Wilcoxon's rank sum test.
(§2) The inventors subsequently investigated the role of miR-135a in paclitaxel sensitivity in vivo. […] As expected, miR-135a […] attenuated paclitaxel-induced cell death (FIG. 8B) and APC protein expression (FIG. 8C) relative to control transfected A549 cells in vitro. […] Paclitaxel treatment was given three times a week for 3 weeks, and tumor size in each group was monitored during the course of treatment. […]

A549 control cells = test: Xenograft of A549 control cells, paclitaxel treatment; details: paclitaxel three times a week for 3 weeks; P<0.001
Description: as §1, §2

Q: For `CC(=O)O[C@H]1C(=O)[C@@]2(C)[C@H]([C@H](OC(=O)c3ccccc3)[C@]3(O)C[C@H](OC(=O)[C@H](O)[C@@H](NC(=O)c4ccccc4)c4ccccc4)C(C)=C1C3(C)C)[C@]1(OC(C)=O)CO[C@@H]1C[C@@H]2O` [paclitaxel], which “tumor growth after paclitaxel treatment” value (T20.2 xenografts; 15 mg/kg paclitaxel i.p.) is on record?
A: Its value is “only a slight delay in tumor growth”.

Q: And the “reduction of relative tumor burden at the end of the experiment” value (T20.2 xenografts; 15 mg/kg paclitaxel i.p. vs vehicle)?
A: The value was 1.4 fold.

Q: What about the “generation of paclitaxel-refractory tumors” value (A549 xenografts; 10 mg/kg paclitaxel i.p.) of the same compound?
A: The value was “did not generate any paclitaxel-refractory tumors”.

Q: What about the “generation of paclitaxel-refractory tumors” value (A549 xenografts; 12.5 mg/kg paclitaxel i.p.) of the same compound?
A: Its value is “did not generate any paclitaxel-refractory tumors”.

Q: What about the “mice with prolonged response” value (A549 xenografts; 15 mg/kg paclitaxel intraperitoneally) of the same compound?
A: The value was 7 out of 10.

Q: What about the “mice that became paclitaxel-refractory” value (A549 xenografts; 15 mg/kg paclitaxel intraperitoneally, continued treatment) of the same compound?
A: Its value is 3 out of 10.

Q: What about the “mouse morbidity as measured by mouse weight” value [1] of the same compound?
A: Its value is “minimal effects on mouse morbidity”.

Q: And the “in vivo growth under paclitaxel exposure” value [2]?
A: The value was “not reduced”.

Q: And the “reduction of relative tumor burden at the end of the experiment” value (A549 control cells)?
A: Its value is 5 fold.

From US9687467B2, “Diagnosis and treatment of taxane-resistant cancers” (Children's Medical Center Corporation, priority 2011, dated 2017)
